# Where a name gives a salt, the structure may show the parent alone.
# Tests used:
# [1] = test system: Caenorhabditis elegans N2; assay: mean nematode size ln(EXT) after 48 h, plate-adjusted (DMSO control set to 6) (ln(EXT), control-adjusted); higher = larger nematodes / less growth inhibition; conditions: exposure time 48 h
# Method in brief: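 Each treatment used 4–6 wells of 50 synchronised C. elegans N2 L1 larvae, kept for 48 h at 20°C in K-medium with killed OP50, 1% DMSO and 0.5–200 µM chemical. Debris was excluded by a growth model after the Biosort measured per-worm extinction. Mean size per well came from natural-logged values and was plate-adjusted. That adjustment subtracted the vehicle control mean and then added 6.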
# [2] = test system: Caenorhabditis elegans N2; assay: lowest effective concentration for larval growth inhibition (size below effect threshold); higher = less potent; conditions: exposure time 48 h
# Method in brief: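 Log-transformed well means of per-worm extinction, read as size on a Biosort, came from 50 C. elegans N2 L1 larvae per 96-well grown 48 h at 20°C in K-medium with killed bacteria, 1% DMSO and 0.5 to 200 µM chemical. The lowest effective concentration is the first dose at which the plate-adjusted mean size is below the threshold and stays below it at every higher dose. The threshold is 5.665.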
Compound,mean nematode size ln(EXT) (ln) ([1]; 0.5 µM),mean nematode size ln(EXT) (ln) ([1]; 1 µM),mean nematode size ln(EXT) (ln) ([1]; 5 µM),mean nematode size ln(EXT) (ln) ([1]; 10 µM),mean nematode size ln(EXT) (ln) ([1]; 50 µM),mean nematode size ln(EXT) (ln) ([1]; 100 µM),mean nematode size ln(EXT) (ln) ([1]; 200 µM),lowest effective concentration [2]
CC1=C(C(=O)Nc2ccccc2)SCCO1 [Carboxin],5.77,5.9,5.83,5.85,5.84,5.62,5.9,> 200 µM
CCn1nc(C)c2c1C(=O)NCC(c1ccc(O)cc1)=N2,5.87,5.81,5.85,5.89,5.87,5.9,5.71,> 200 µM
CN(C)C(=O)Nc1cccc(C(F)(F)F)c1 [Fluometuron],6.02,6.11,6.08,6.02,5.87,6.07,5.78,> 200 µM
Cc1cc(=O)[nH]c(=S)[nH]1 [Methylthiouracil],6.01,5.97,5.94,5.97,6,6.12,5.98,> 200 µM
"Cc1ccc(N)c(N)c1 [3,4-Diaminotoluene]",5.97,5.93,5.94,5.91,5.88,5.71,5.75,> 200 µM
OCCOCCOCCO [Triethylene glycol],5.84,5.84,5.95,5.98,5.88,5.87,5.84,> 200 µM
CCCCCCOC(=O)CC(CC(=O)OCCCCCC)(OC(=O)CCC)C(=O)OCCCCCC [N-Butyryl tri-N-hexyl citrate],5.93,5.96,5.91,5.98,6.15,5.75,5.83,> 200 µM
COc1ccccc1N [2-Anisidine],5.76,5.78,5.84,5.82,5.83,5.81,5.78,> 200 µM
CC(=O)c1ccccc1 [Acetophenone],6,6.01,6.03,6.08,6.16,6.11,5.78,> 200 µM
"C[C@H](O)CCO [1,3-Butanediol]",5.92,5.9,5.88,6.01,6,6.02,5.74,> 200 µM
Cc1ccc(S(=O)(=O)NC(=O)NN2CCCCCC2)cc1 [Tolazamide],5.93,5.92,5.93,5.91,5.61,5.87,5.79,> 200 µM
O=C1CCC(N2C(=O)c3ccccc3C2=O)C(=O)N1 (centres undefined) [Thalidomide],5.98,5.95,5.98,5.97,5.97,5.85,5.97,> 200 µM
OCCN(CCO)CCO [Triethanolamine],5.65,5.64,5.71,5.66,5.09,5.38,5.69,> 200 µM
Cc1ccc(O)cc1 [4-Methylphenol],5.84,5.98,5.92,5.87,5.96,5.8,5.83,> 200 µM
CCOCCOCCO [Diethylene glycol monoethyl ether],6.02,6.03,6.07,6.05,6.03,6.06,5.76,> 200 µM
CCNc1nc(Cl)nc(NCC)n1 [Simazine],6.2,6.08,6.12,6.13,6.17,6.19,5.77,> 200 µM
CC1(C)CON(Cc2ccccc2Cl)C1=O [Clomazone],6.09,6.23,6.29,6.06,6.2,6.07,5.68,> 200 µM
Cc1ccc(S(=O)(=O)O)cc1C [Sodium xylenesulfonate],5.89,5.95,5.92,5.82,5.89,5.8,5.72,> 200 µM
CCCCOC(=O)c1ccccc1C(=O)OCc1ccccc1 [Butyl benzyl phthalate],5.93,5.94,6.01,5.98,6.17,5.76,5.67,> 200 µM
"Cc1cccc(C)c1O [2,6-Dimethylphenol]",5.9,5.89,5.89,5.78,5.88,5.65,5.82,> 200 µM
CCCCCCCC=O [Octanal],6,5.82,5.94,5.77,5.88,5.84,5.77,> 200 µM
COP(=O)(OC)O/C(C)=C/C(=O)N(C)C [Dicrotophos],6.11,6.42,6.04,6.07,6.05,6.05,5.85,> 200 µM
"Cc1cc(C)c(O)c(C)c1 [2,4,6-Trimethylphenol]",5.76,5.87,5.85,5.84,5.87,5.86,5.76,> 200 µM
CCc1ccc(CCOc2ccc(CC3SC(=O)NC3=O)cc2)nc1 (centres undefined) [Pioglitazone HCl],5.98,5.94,5.95,5.96,5.91,5.87,5.76,> 200 µM
COc1cc2c(c(OC)c1OC)-c1ccc(OC)c(=O)cc1[C@@H](NC(C)=O)CC2 [Colchicine],5.82,5.93,5.87,5.95,5.92,5.89,5.7,> 200 µM
O=C(O)c1ccc2c(c1)nc(C(=O)NC1CCN(C3CC3)CC1)n2Cc1cc(-c2ccc(Cl)s2)on1,5.76,5.81,5.71,5.87,5.82,5.69,5.86,> 200 µM
CCC(C)n1c(=O)[nH]c(C)c(Br)c1=O (centres undefined) [Bromacil],6.06,6.23,6.18,6.3,6.1,6.23,5.81,> 200 µM

Compound,mean nematode size ln(EXT) (ln) ([1]; 0.5 µM),mean nematode size ln(EXT) (ln) ([1]; 1 µM),mean nematode size ln(EXT) (ln) ([1]; 5 µM),mean nematode size ln(EXT) (ln) ([1]; 10 µM),mean nematode size ln(EXT) (ln) ([1]; 50 µM),mean nematode size ln(EXT) (ln) ([1]; 100 µM),mean nematode size ln(EXT) (ln) ([1]; 200 µM),lowest effective concentration [2]
"CCC12COCN1COC2 [5-Ethyl-1-aza-3,7-dioxabicyclo[3.3.0]octane]",5.73,6.05,6.06,5.92,5.96,5.94,5.78,> 200 µM
Cc1cccc2ccccc12 [1-Methylnaphthalene],6.08,6.13,5.94,6.03,5.99,6.02,6.02,> 200 µM
O=C([O-])c1ccccc1.[Na+] [Sodium benzoate],5.83,5.83,5.95,5.83,5.86,5.76,5.68,> 200 µM
Cc1ccccc1O [2-Methylphenol],5.98,5.9,5.94,5.82,5.92,5.94,5.81,> 200 µM
COc1cccc([C@H](O)C2CCN(CCc3ccc(F)cc3)CC2)c1OC [Volinanserin],5.67,5.79,5.78,5.95,5.83,5.8,5.78,> 200 µM
Oc1ccccc1O [Catechol],5.94,5.82,5.86,5.84,5.9,5.95,5.72,> 200 µM
"CC1(C)NC(=O)NC1=O [5,5-Dimethylhydantoin]",5.74,5.99,6.06,5.91,5.97,5.93,5.79,> 200 µM
Cn1cnc2c1c(=O)[nH]c(=O)n2C [Theobromine],5.83,5.87,5.98,6.03,5.87,5.86,5.83,> 200 µM
CCc1cc(C2=C(C(=O)O)N(c3ccccc3C(F)(F)F)S(=O)(=O)c3ccccc32)cc2c1OCO2 [Fandosentan potassium salt],5.81,5.82,5.89,5.85,5.75,5.75,5.69,> 200 µM
CC(C)CCCCCCOC(=O)c1ccc(C(=O)OCCCCCCC(C)C)c(C(=O)OCCCCCCC(C)C)c1 [Triisononyl Trimellitate],5.94,5.89,5.94,5.86,5.81,5.73,5.68,> 200 µM
"O=C(OCCCCCCOC(=O)c1ccccc1)c1ccccc1 [1,6-Hexanediol dibenzoate]",5.83,5.82,5.69,5.68,5.63,5.49,5.57,50 µM
O=C(O)C1(C(=O)Nc2ccc(Cl)cc2Cl)CC1 [Cyclanilide],6.16,6.05,6.18,6.27,6.34,6.38,5.9,> 200 µM
CCCCCCCC(=O)O [Octanoic acid],6,5.81,5.92,5.8,5.89,5.84,5.78,> 200 µM
"Cc1ccc(N(C)C)cc1 [N,N,4-Trimethylaniline]",5.82,5.87,5.94,5.79,5.76,5.72,5.73,> 200 µM
CSC(C)(C)/C=N/O [Aldicarb oxime],5.88,5.88,5.75,5.85,5.94,5.94,5.77,> 200 µM
COC(=O)c1ccccc1C(=O)OC [Dimethyl phthalate],5.82,5.99,6.07,6.01,6.18,6.01,5.98,> 200 µM
CCOC(=O)CC(SP(=O)(OC)OC)C(=O)OCC (centres undefined) [Malaoxon],5.9,5.85,6.21,5.99,5.89,5.94,5.83,> 200 µM
C[C@]12C=CC(=O)C=C1CC[C@H]1[C@@H]3C[C@@H](O)[C@](O)(C(=O)CO)[C@@]3(C)C[C@H](O)[C@@]12F [Triamcinolone],5.9,5.86,5.87,5.87,5.92,5.86,5.79,> 200 µM
CNC(=O)CSP(=S)(OC)OC [Dimethoate],6.23,6.15,6.18,6.23,6.24,6.21,5.95,> 200 µM
"ClC1C(Cl)C(Cl)C(Cl)C(Cl)C1Cl (stereo not drawn) [beta-1,2,3,4,5,6-Hexachlorocyclohexane]",5.52,5.63,5.65,5.7,5.74,5.75,5.87,> 200 µM
"Cc1ccc(C)c(C)c1 [1,2,4-Trimethylbenzene]",5.8,5.84,5.88,5.84,5.91,5.89,5.71,> 200 µM
CC(C)CCCCCCOC(=O)CCCCC(=O)OCCCCCCC(C)C [Diisononyl adipate],5.94,5.98,5.93,5.92,5.87,5.91,5.69,> 200 µM
CCCc1ccccc1 [Propylbenzene],5.75,5.64,5.71,5.69,5.38,5.53,5.61,50 µM
C=CC(=C)CCC=C(C)C [Myrcene],5.79,5.75,5.76,5.75,5.73,5.71,5.71,> 200 µM
O=C(Oc1ccccc1)c1cccc(C(=O)Oc2ccccc2)c1 [Diphenyl isophthalate],5.87,5.89,5.87,5.87,5.94,5.94,5.7,> 200 µM
"O=c1c(O)c(-c2ccc(O)c(O)c2)oc2cc(O)cc(O)c12 [2-(3,4-Dihydroxy-phenyl)-3,5,7-trihydroxy-chromen-4-one]",5.8,5.86,5.86,5.79,4.75,5.87,5.75,> 200 µM

# — the supplement of paper PMC4858399
